Source: article PMC8880313, “Discovery of Novel Andrographolide Derivatives as Antiviral Inhibitors against Human Enterovirus A71” (Pharmaceuticals, 2022)

Assays:
[1] = system: RD cells; assay: Cell viability assay (alamarBlue); type: cell-based, human; conditions: 10 µM, 12 h
Method: (§1) Firstly, we performed cell viability assay to evaluate the cytotoxicity profile of the 19 hits. Cells seeded overnight were treated with the hit compounds at 10 µM. […] Anti-EV-A71 activity of AGP-253 had been illustrated and discussed previously. We were particularly interested in ZAF-46 and ZAF-47 as they belonged to the same series bearing novel 14-quinolinoxy and 17-hydro-8,9-olefin modifications (Figure 2b) that could potentially open up new targets for EV-A71 therapeutics. Additional cell viability assays were performed for ZAF-46 and ZAF-47 at different concentrations to identify the low cytotoxic concentrations for downstream post-treatment assays. For post-treatment assays, cells seeded overnight were infected with EV-A71 and subsequently treated with ZAF-46 and ZAF-47 at different concentrations. […] Treatment with ZAF-46 led to 1.4 log reduction at 10 µM and 2.4 log reduction at 20 µM (Figure 2c) while treatment with ZAF-47 led to 0.8 log reduction at 5 µM, 1.1 log reduction at 10 µM and 2.1 log reduction at 20 µM (Figure 2d). CC50 and IC50 for both compounds were determined and used to derive their SI (Table 2). ZAF-47 was selected for further downstream analysis due to its higher SI value which indicate higher pharmacological value for clinical use.
(§2) To determine the cytotoxicity profiles of the hits, cell viability assay was performed. Seeded 96-well plates, with 2 × 10^4 RD cells per well, were incubated overnight at 37 °C with 5% CO2. Different concentrations of drug hits, diluted by reduced serum DMEM, were used to treat the seeded cells for 12 h at 37 °C with 5% CO2. Reduced serum DMEM, was employed as the negative control and 0.1% DMSO as the vehicle control for this step. Subsequently, the supernatant was replaced with alamarBlue^TM Cell Viability Reagent (Thermo Fisher Scientific, Waltham, MA, USA) (100 µL), diluted 10-fold in reduced serum DMEM, and incubated for 3 h at 37 °C with 5% CO2. Fluorescence intensity in each well was measured at 570 nm excitation wavelength and 600 nm emission wavelength in each well by the Infinite^TM 200 series microplate reader (Tecan, Männedorf, Switzerland) and normaliszd with the negative control to determine the relative cell viability.

[2] = system: EV-A71; assay: Immunofluorescence-based preliminary screen of EV-A71-infected RD cells; type: cell-based, human enterovirus A71 (EV-A71) strain 41; conditions: EV-A71-infected RD cells (MOI = 1)
Description: The screening assay was built using an immunofluorescence approach that was previously established and validated, with DAPI-stained nuclei accounting for total cell count and FITC-stained EV-A71 accounting for infected cell count upon EV-A71 infection and compound treatment. Both cell counts would then be used to calculate percentage infection and percentage inhibition to identify for hits. Before the screening platform can be employed to screen for potential antivirals, its robustness has to be appraised. In this study, Z-factor was calculated to assess the robustness of the screening platform. Firstly, seeded RD cells were either infected with EV-A71 (Multiplicity of Infection of 1) or mock-infected with media. The cells were then fixed, stained and imaged 12 h post-infection (hpi). The IFA images were analyzed with the Cell Profiler software to determine the infection rate of each well. Between the virus-infected and mock-infected wells, a clear distinction in infection rates could be observed (Figure 1a). […] In this case, the Z-factor, measured at 0.818, was indicative of a highly robust screening platform for high-throughput screening. The constructed screening platform was then employed to screen the compound library made up of 344 chemically synthesized novel compounds analogous to andrographolide. The compounds were screened at 10 µM with IFA images taken and analyzed to identify for hits. Treatment with 0.1% DMSO was used as vehicle control.
Seeded 96-well plates (Corning Inc., Corning, NY, USA), with 2 × 10^4 RD cells per well, were incubated overnight at 37 °C with 5% CO2. The seeded cells were then infected with EV-A71 (50 µL per well, MOI = 1) for 1 h at 37 °C with 5% CO2. The EV-A71-infected cells were then treated with the compound library at a final concentration of 10 µM for 12 h at 37 °C with 5% CO2. Treatment with 0.1% DMSO was used as vehicle control. Following treatment, cells were fixed with 100 µL of methanol (Sinopharm Chemical, Shanghai, China) for 15 min at −20°C and rinsed with 100 µL of 1x PBS for three times before performing indirect immunofluorescence assay (IFA). Anti-EV-A71 VP2 1° antibodies, MAB979 (Merck Millipore, Burlington, VT, USA), diluted 500-fold in PBS, was incubated with the fixed cells for 1 h at 37 °C. Cells were then rinsed thrice with PBS and incubated with anti-mouse FITC 2° antibodies (Merck Millipore), diluted 200-fold in PBS, for 1 h at 37 °C. After which, the cells were rinsed thrice with PBS before staining with DAPI (Sigma-Aldrich) at room temperature for 15 min. Cells were then rinsed thrice and preserved in 100 µL of PBS before imaging with the Operetta High-Content Imaging System and the Harmony High-Content Imaging and Analysis Software (Perkin Elmer, Waltham, MA, USA). Images of stained cells were captured with the DAPI and FITC fluorescence filters, from a pre-determined central position of each well and processed with the Cell Profiler software. […] The percentage infection (PI) for each well was calculated using the formula: Infected cell count/Total cell count × 100%. The percentage inhibition for each well was calculated using the formula PI0− PI/PI0 × 100% where PI0 refers to the percentage infection of wells treated with the vehicle control while PI refers to the percentage infection of wells treated with the compounds.

[3] = system: replication-competent EV-A71 RNA replicon; assay: Nano-luciferase reporter assay, replication-competent replicon; type: cell-based, human enterovirus A71 (EV-A71); conditions: RD cells, 12 h; ZAF-47 different concentrations, GuHCl 1 mM
Method: To identify specifically which of these two intrinsically linked processes that ZAF-47 inhibits, we transfected RD cells with EV-A71 RNA replicons that were either replication-competent or replication-defective and subsequently treated them with different concentrations of ZAF-47 for 12 h before detecting for luminescence. Both forms of replicons were previously established and validated. The replication-competent replicon is capable of self-replicating as it contains an intact 3D region that encodes for 3D polymerase (3D^pol) responsible for RNA replication (Figure 4c). […] In contrast, the replication-defective replicon contains a 3D region with 159 nucleotide deletion which would produce a non-functional 3D protein and impair RNA replication (Figure 4c). As such, cells containing the replication-defective replicon express luciferase upon IRES translation of the original replicons only. The transfected cells were also treated with negative control, DMSO and positive controls, guanidine hydrochloride (GuHCl) and cycloheximide (CHX), a RNA replication-specific inhibitor [50] and a general translation inhibitor [51] respectively.
Seeded 96-well plates, with 2 × 10^4 RD cells per well, were incubated overnight at 37 °C with 5% CO2. […]

[4] = Cell viability assay (alamarBlue); type: cell-based, human; conditions: human, RD cells
Method: as §1, §2

[5] = system: EV-A71; assay: Post-treatment assay with viral plaque assay; type: cell-based, human enterovirus A71 (EV-A71) strain 41; conditions: for reduction in viral titre: post-treatment, 12 hpi
Method: as §1
To determine the inhibitory profiles of the hits, post treatment assay was performed. Seeded 24-well plates, with 1.5 × 10^5 RD cells per well, were incubated overnight at 37 °C with 5% CO2. The seeded cells were infected with EV-A71 (100 µL per well, MOI = 1) for 1 h at 37 °C with 5% CO2 and then rinsed with 1 mL of PBS twice. Different concentrations of the hits were used to treat the infected cells for 12 h at 37 °C with 5% CO2. At 12 hpi, the plates were frozen and thawed for 2 cycles (−80°C; 37 °C) before collection of supernatants to measure the viral titres via viral plaque assay.
Measurement of the viral titres from collected supernatants was derived from viral plaque assays. To do this, 24-well plates, seeded with 2.4 × 10^5 RD cells per well, were used in plaque assays for EV-A71, EV-D68, Echo7, CV-A6, CV-A16 and CV-A24 while 24-well plates, seeded with 1.2 × 10^5 Vero cells per well, were used in plaque assays for CV-B5. Seeded cells were incubated overnight at 37 °C with 5% CO2. Viral supernatants were diluted from 10^−1 to 10^−7 in reduced serum DMEM before infecting the cells with a volume of 100 µL for 1 h at 37 °C with 5% CO2 (33 °C instead for EV-D68). Cells were rinsed twice with PBS before overlaying with 1 mL of reduced serum DMEM containing 0.5% agarose (Vivantis, Shah Alam, Malaysia). Cells infected with Echo7 supernatants were incubated for 2 days, cells infected with CV-A24 and CV-B5 supernatants were incubated for 3 days and cells infected with EV-A71, CV-A6, CV-A16 and EV-D68 supernatants were incubated for 4 days for the formation of plaques. Subsequently, the cells were fixed and stained overnight with 4% paraformaldehyde and 1% crystal violet (Sigma-Aldrich). Subsequent formation of viral plaques was counted manually to quantify the viral titre in PFU/mL

[6] = parameters: method as in PMID 34816382; conditions: cited from earlier work
[7] = parameters: method as in PMID 34816382; conditions: cited from earlier work; remark: listed apart in the source

**Q.** Which cytotoxicity [1] does the source give for `CC1(CO)C(O)CCC2(C)C(CC=C3C(=O)OCC3Oc3ccc([N+](=O)[O-])cc3Cl)C3(CCC12)CO3` (stereo not drawn) [AGP-253, 14S-(2′-Chloro-4′-Nitrophenoxy)-8R/S, 17-Epoxy Andrographolide] here?
**A.** Its cytotoxicity is “low cytotoxicity”.

**Q.** What about the “Inhibition Rate (%)” value ([2]; 10 µM, 12 h) of the same compound?
**A.** The value was 98.91%.

**Q.** With `Cl.N=C(N)N` [GuHCl, guanidine hydrochloride, reference compound] as the compound, how does the “luminescence, replication-competent replicon” value [3] read?
**A.** Its value is “significant decrease in luminescence”.

**Q.** For `CC(=O)OC[C@]1(C)[C@H](O)CC[C@@]2(C)C(C/C=C3/C(=O)OC[C@@H]3Oc3cccc4cccnc34)=C(C)CC[C@H]12` [ZAF-46, (14β)-(8′-Quinolinoxy)-9-dehydro-17-hydro-19-acetoxy-andrographolide], which cytotoxicity [1] is on record?
**A.** The cytotoxicity was “low cytotoxicity”.

**Q.** And the CC50 at 12 h [4]?
**A.** The CC50 at 12 h was 29.9 µM.

**Q.** And the “reduction in viral titre” value ([5]; 10 µM)?
**A.** The value was 1.4 log.

**Q.** What about the “reduction in viral titre” value ([5]; 20 µM) of the same compound?
**A.** Its value is 2.4 log.

**Q.** What about the IC50 ([5]; Enterovirus A, EVA71, EV-A71-infected RD cells, MOI = 1, 12 h treatment, viral plaque assay) of the same compound?
**A.** The IC50 was 4.44 µM.

**Q.** And the “Selectivity Index (SI)” value ([5]; SI = CC50/IC50)?
**A.** Its value is 6.73.

**Q.** What about the “Nuclei Count” value ([2]; 10 µM, 12 h, 0.1% DMSO wells 998) of the same compound?
**A.** Its value is 1037.

**Q.** And the inhibition at 10 µM ([2]; Enterovirus A, EVA71, 12 h, read-out: Inhibition Rate (%))?
**A.** The inhibition at 10 µM was 96%.

**Q.** Which water solubility [6] does the source give for `C=C1CC[C@@H]2[C@](C)(CO)[C@H](O)CC[C@@]2(C)[C@@H]1C/C=C1/C(=O)OC[C@H]1O` [andrographolide] here?
**A.** The water solubility was “low water solubility”.

**Q.** And the bioavailability [7]?
**A.** Its bioavailability is “poor bioavailability”.
